From patent US9074016B2, “G protein-related kinase mutants in essential hypertension” (priority 1998, dated 2015)
“Also recorded” adds a separate entry of the source.

Assays:
[1] = tested on: GRK activity in renal proximal tubule cells; experiment: GRK activity (phosphorylation of rhodopsin) in extracts of renal proximal tubule cells; assay type: cell-based, human
Text: Human kidneys were obtained as fresh surgical specimens from patients who had unilateral nephrectomy due to renal carcinoma. The patient records of the subjects were reviewed and classified into those with either normal blood pressure (n=9) or essential hypertension (n=14). Subjects with systolic blood pressures less than 140 mm Hg and diastolic blood pressures less than 90 mm Hg were considered normotensive. Subjects with systolic blood pressures equal to or greater than 140 mm Hg or diastolic blood pressures equal to or greater than 90 mm Hg and/or on antihypertensive medications were considered hypertensive. […]
GRK activity was measured according to Benovic, Methods Enzymol. […] The gels were subjected to autoradiography, and the phosphorylated rhodopsin was quantified using both densitometry and radioactive counting of the excised bands at the appropriate size. GRK activity was also measured in the presence or absence of a GRK isoform antibody.

[2] = tested on: D1 receptor / adenylyl cyclase coupling in renal proximal tubule cells; experiment: cAMP accumulation in renal proximal tubule cells; assay type: cell-based, human; settings: normotensive versus hypertensive subjects
Protocol: Cultures of renal proximal tubule cells from histologically-verified normal kidney sections (5×10^5 cells/well in 24 well plastic plates coated with 0.075% Type I collagen) were incubated at 37° C. in […] and grown in a serum-free medium consisting of a 1:1 mixture of Dulbecco's Modified Eagle's medium and Ham's F12 medium supplemented with selenium (5 ng/ml), insulin (5 μg/ml), transferrin (5 μg/ml), hydrocortisone (36 ng/ml), triiodothyronine (4 pg/ml), and epidermal growth factor (10 ng/ml). When sub-confluent (90-95%), the cells were sub-cultured (passages 6-8) for use in experimental protocols using trypsin-EDTA (0.05%, 0.02%). The culture conditions are conducive for growth of human renal proximal tubules that retain characteristics of renal proximal tubule cells, Sanada, et al., J. Invest. Med. 45:277 A (1997).
The cells were washed twice with Dulbecco's phosphate buffered saline (D-PBS), after which 1 mM 3-isobutyl-1-methyl-xanthine was added to each well. […] Then, the cells were washed twice with D-PBS and frozen at −80° C. and the cells were further lysed with 0.1N HCl. cAMP concentration was measured by radioimmunoassay. […] Protein concentration was measured with the BCA protein assay kit (Pierce Chem. Co., Rockford, Ill.). […]

[3] = target: T1, D1 receptor (Homo sapiens, UniProt P21728); experiment: Serine phosphorylation of D1 receptor (immunoprecipitation / anti-phosphoserine immunoblot) in renal proximal tubule cells; assay type: cell-based; settings: normotensive subjects
T1 construct: endogenous in cells; host or cells: renal proximal tubule cells in culture from normotensive and hypertensive human subjects
T1 sequence (P21728 whole entry): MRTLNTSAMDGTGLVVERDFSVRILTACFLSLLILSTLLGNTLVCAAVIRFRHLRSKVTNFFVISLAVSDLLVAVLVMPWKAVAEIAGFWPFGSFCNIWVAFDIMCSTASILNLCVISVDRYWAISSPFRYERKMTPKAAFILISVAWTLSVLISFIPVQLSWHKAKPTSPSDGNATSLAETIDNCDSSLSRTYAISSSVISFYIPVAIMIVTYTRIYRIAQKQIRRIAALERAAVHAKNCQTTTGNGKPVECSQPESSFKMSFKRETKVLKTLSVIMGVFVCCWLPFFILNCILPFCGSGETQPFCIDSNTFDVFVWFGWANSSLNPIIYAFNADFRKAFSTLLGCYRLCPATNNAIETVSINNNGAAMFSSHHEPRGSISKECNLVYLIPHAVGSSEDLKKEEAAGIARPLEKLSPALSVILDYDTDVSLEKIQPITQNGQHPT
Protocol: Proximal tubule cells were incubated with vehicle, fenoldopam, sense, scrambled or antisense propyne/phosphorothioate oligonucleotides (5 nM) as described above. The membranes were lyzed with ice cold lysis buffer (PBS with 1% NP40, 0.5% sodium deoxycholate, 0.1% SDS, 1 mM EDTA, 1 mM EGTA, 1 mM sodium vanadate, 1 mM NaF, 1 mM PMSF, 10 μg/ml aprotinin and 10 μg/ml leupeptin). The lysates were incubated with IgG-purified anti D1 receptor antibody on ice for 1 hr and protein-A agarose for 12 hrs with rocking at 4° C. The proteins separated by SDS-polyacrylamide gel electrophoresis were electrophoretically transferred onto nitrocellulose membranes. The transblot sheets blocked with 5-10% nonfat dry milk in 10 mM Tris-HCl, pH 7.5, 150 mM NaCl, and 0.1% Tween-20 were incubated with diluted affinity-purified polyclonal anti-phosphoserine antibody (Zymed Lab, San Francisco, Calif.); Sanada, et al., supra. In some cases, the cells were labeled with ^32P and immunoprecipitated with anti D1 receptor antibody. The autoradiograms and immunoblots, visualized with ECL system (Amersham, Arlington Heights, Il) were quantified by densitometry. Sanada, et al., supra.

[4] = tested on: D1 receptor; experiment: cAMP production in CHO cells transfected with D1 receptor and GRK4γ; assay type: cell-based
Protocol: The cells were washed twice with Dulbecco's phosphate buffered saline (D-PBS), after which 1 mM 3-isobutyl-1-methyl-xanthine was added to each well. The cells were incubated at 37° C. for 30 minutes with or without drugs: dopamine and the D1-like receptor agonist, fenoldopam, the D1-like receptor antagonist, SCH23390 (Research Biochemicals International, Natick, Mass.), and forskolin (Sigma Chemical Co., St. Louis, Mo.). Then, the cells were washed twice with D-PBS and frozen at −80° C. and the cells were further lysed with 0.1N HCl. cAMP concentration was measured by radioimmunoassay. […] Protein concentration was measured with the BCA protein assay kit (Pierce Chem. Co., Rockford, Ill.).
The rat D1 (rD1) or human D1 (hD1) receptor cDNA was subcloned in the expression vector pPUR (Clontech, Palo Alto, Calif.) or pcDNA3.1/Zeo (Invitrogen, Carlsbad, Calif.), respectively, between EcoRland XbaI sites. The resulting constructs were used to stably transfect CHO cells expressing the pTet-Off regulator plasmid (Clontech, Palo Alto, Calif.) using calcium phosphate. […] GRK4γ and GRK4δcDNAs, obtained from RT/PCR of mRNA from human kidney cortex were subcloned into a pTet-Off response plasmid (pTRE-rD1 or pTRE-hD1 and pTK-Hyg mixed in a 20:1 ratio, respectively) (Clontech, Palo Alto, Calif.).
GRK4δ was used for comparison.

Oc1ccc(C2CNCCc3c2cc(O)c(O)c3Cl)cc1 (centres unmarked) [fenoldopam]
effect on GRK activity, assessed by the phosphorylation of rhodopsin ([1]; renal proximal tubule cells from hypertensive subjects): increased GRK activity
effect on GRK activity, assessed by the phosphorylation of rhodopsin ([1]; renal proximal tubule cells from normotensive subjects): had no effect on GRK activity; also recorded: failed to increase GRK activity
cAMP accumulation [2]: increased cAMP accumulation to a greater extent in renal proximal tubule cells from normotensive than from hypertensive subjects
quantity of serine-phosphorylated D1 receptor [3]: increased the quantity of serine-phosphorylated D1 receptor
selectivity of action on cAMP production [4]: selective for the D1 receptor
